According to publication PMC6302903, “Protein and Chemical Determinants of BL-1249 Action and Selectivity for K2P Channels” (ACS Chemical Neuroscience, 2018):

Experiments:
[1] = molecular target: T1, K2P2.1(TREK-1) (Mus musculus, UniProt P97438); assay: Inside-out patch clamp of K2P2.1(TREK-1) in HEK293 cells; type: cell-based; set-up: expressed in transfected cells; conditions: HEK293 inside-out patches, 150 mM K+[out]/150 mM Rb+[in], 1 μM
T1 sequence (P97438 1-411 isoform P97438-2): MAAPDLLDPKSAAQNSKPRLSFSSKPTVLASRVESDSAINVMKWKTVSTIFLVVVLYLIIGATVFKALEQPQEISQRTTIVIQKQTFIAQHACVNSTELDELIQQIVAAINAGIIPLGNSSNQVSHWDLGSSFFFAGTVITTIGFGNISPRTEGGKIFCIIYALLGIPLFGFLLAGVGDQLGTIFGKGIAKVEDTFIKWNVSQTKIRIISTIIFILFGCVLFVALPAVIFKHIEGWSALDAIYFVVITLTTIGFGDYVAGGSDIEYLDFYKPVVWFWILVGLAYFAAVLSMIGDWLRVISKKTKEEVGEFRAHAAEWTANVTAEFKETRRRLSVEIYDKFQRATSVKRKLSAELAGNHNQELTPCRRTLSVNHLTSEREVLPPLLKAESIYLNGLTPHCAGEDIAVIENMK
Excerpt: Diverse types of physical and chemical stimuli activate K2P2.1(TREK-1) by stabilizing the C-type gate and switching the channel into a “leak” mode that is characterized by a loss of outward rectification of the potassium current.[6],[8] Accordingly, we used inside-out patch clamp experiments of K2P2.1(TREK-1) expressed in HEK293 cells to test whether BL-1249 acts on the C-type gate. […] Together with previous single point concentration studies showing the insensitivity of K2P2.1(TREK-1) W275S in mammalian cells,[40] our data provide definitive evidence that BL-1249 activates K2P2.1(TREK-1) by stimulating the C-type gate. Thus, this compound fits the mechanistic paradigm shared by varied types of activators including mechanical stretch, pH, lipids, and small molecules.[6],[8]
Mouse K2P2.1 was expressed from a previously described pIRES2-EGFP vector in HEK293T cells (ATCC CRL-1573). Cells at 70% confluence were transfected (in 35 mm diameter wells) using LipofectAMINE 2000 (Invitrogen) for 6 h and plated onto coverslips coated with Matrigel (BD Biosciences).
Voltage-dependent activation of K2P2.1 was recorded on excised patches in inside-out configuration (50 kHz sampling) in the absence and presence of 1 μM BL-1249. Pipette solution contained the following: 150 mM KCl, 3.6 mM CaCl2, 10 mM HEPES (pH 7.4 with KOH). […] Data were analyzed using Clampfit 9 and Origin 7.

[2] = molecular target: T2, K2P5.1(TASK-2) (Mus musculus, UniProt F6V9U5); assay: TEVC of K2P5.1(TASK-2) in Xenopus oocytes; type: cell-based; conditions: concentrations up to the solubility limit (∼80 μM)
T2 construct: expressed in transfected cells; host or cells: Xenopus laevis oocytes (mRNA injection, pGEMHE/pMO)
T2 sequence (F6V9U5 1-502): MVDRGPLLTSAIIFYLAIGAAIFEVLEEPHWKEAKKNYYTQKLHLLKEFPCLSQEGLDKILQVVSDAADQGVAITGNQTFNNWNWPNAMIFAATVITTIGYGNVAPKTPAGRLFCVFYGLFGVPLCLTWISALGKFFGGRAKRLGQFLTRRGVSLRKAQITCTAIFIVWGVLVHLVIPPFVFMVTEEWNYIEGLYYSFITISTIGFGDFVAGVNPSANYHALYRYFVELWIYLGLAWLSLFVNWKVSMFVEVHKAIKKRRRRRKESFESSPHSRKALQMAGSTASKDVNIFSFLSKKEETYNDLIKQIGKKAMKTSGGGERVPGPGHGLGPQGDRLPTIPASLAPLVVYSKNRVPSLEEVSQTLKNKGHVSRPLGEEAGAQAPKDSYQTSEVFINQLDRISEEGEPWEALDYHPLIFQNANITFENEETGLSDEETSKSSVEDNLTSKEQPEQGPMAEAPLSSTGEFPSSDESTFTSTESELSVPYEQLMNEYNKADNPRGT
Procedure: BL-1249 activates K2P2.1(TREK-1)[18],[40] and K2P10.1(TREK-2),[7] but its effects on other K2P channels have not been characterized. […] In order to test if the original 10 μM assay had missed BL-1249 effects in other K2P channels, we tested concentrations of BL-1249 up to the solubility limit (∼80 μM) against the other K2P subfamily representatives. […]
Xenopus laevis oocytes were harvested in accordance with UCSF IACUC protocol AN129690 and digested in calcium-free ND-96 (96 mM NaCl, 2 mM KCl, 3.8 mM MgCl2) immediately following harvest, as previously described.[6],[10] […] Defolliculated stage V–VI oocytes were injected with 0.2–6.0 ng of mRNA in 50 nL, and currents were recorded 24–48 h after injection. mRNA was synthesized from plasmid DNA using mMessage mMachine Kit (T7 promoter, Ambion, Life Technologies) and purified using RNEasy Kit (Qiagen). […] Once stabilized basal currents were recorded, compounds were perfused at various concentrations in standard ND96 and currents were allowed to increase to stabilization before recording final current. Fold activation upon compound application is expressed as I/I0 (0 mV), derived from the current at 0 mV in the presence of compound divided by the basal current at 0 mV in standard ND96 without compound. Data were analyzed and plotted using Graphpad Prism Version 5 (GraphPad Software, San Diego California USA, www.graphpad.com). […]

effect on outward rectification (C-type gate) [1]: clear loss of rectification
activation of K2P5.1(TASK-2) [2]: failed to find evidence for activation
Structure (SMILES): c1ccc(-c2nnn[nH]2)c(Nc2cccc3c2CCCC3)c1 [BL-1249, (5,6,7,8-tetrahydro-naphthalen-1-yl)-[2-(1H-tetrazol-5-yl)-phenyl]-amine]
